# Results reported in ChEMBL document CHEMBL1201862, “PubChem BioAssay data set” (2004).
# Activity calls are given as the source filed them.
# Assays:
# [1] = Trypanosoma cruzi growth suppression in host cells – NIH3T3 host cells, beta-gal luminescence, confirmation (AID 2044); format: functional, cell-based;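 also: intracellular parasites grown in NIH/3T3 mouse fibroblasts as host cells; luminescent beta-galactosidase reporter signal from transgenic T. cruzi replicating inside host cells; inhibitors lower the luminescence signal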
# [2] = molecular target: Heat shock protein HSP 90-alpha (Homo sapiens, UniProt P07900); experiment: Luminescence-based dose response biochemical high throughput screening assay for inhibitors of the Heat Shock Protein 90 (HSP90). [Related pubchem assays: 1831 (Summary AID.), 1846 (Confirmation screen.), 1789 (Primary screen.)]
# [3] = test system: A-375; experiment: MITF: Counter assay: A375 proliferation Measured in Cell-Based System Using Plate Reader - 2084-03_Inhibitor_Dose_DryPowder_Activity. [Related pubchem assays (depositor defined):AID488944]; format: functional; conditions: Homo sapiens
# [4] = NIH3T3 cell viability loss – ATP luminescence, mouse fibroblasts, counter-screen, dose response (AID 2010); format: functional, cell-based;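 also: cells exposed to compound for about 90 hours before reading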
# [5] = blockade of melanocortin 4 receptor signaling – cell-based, plate reader, cherry pick, counter-screen for LGR2 antagonist project, dose response (AID 743444); format: functional;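 also: transfected HEK 293 cells stimulated with alpha-MSH peptide; potency of inhibitors of the alpha-MSH evoked signal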
# [6] = viability loss in HEK293 cells – cell-based, plate reader, cherry-picked samples, cytotoxicity control, dose response (AID 743446); format: functional
# [7] = viability loss in THP-1 monocytes – THP-1 cells, cytotoxicity control for Vif-APOBEC3G degradation inhibitor project, dose response (AID 1117359); format: functional; conditions: THP-1
# [8] = toxicity toward HepG2 liver cells – cell-based, plate reader, cherry-pick, antagonist series, cytotoxicity control, dose response (AID 743416); format: functional
# [9] = test system: INS1; experiment: INS-1E survival protection against cytokine death – cell-based, luminescence, retest, dose response (AID 449756); format: functional; conditions: Rattus norvegicus;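 also: cell death triggered by IL-1 beta plus TNF-alpha plus IFN-gamma mixture; protective hits raise ATP signal compared with cytokine alone wells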
# [10] = microbe, parasite or virus in culture; format: functional; conditions: Mycobacterium tuberculosis
# [11] = blockers of bursicon-stimulated LGR2 cAMP reporter – cell-based, HEK293, CRE-luciferase reporter, cherry pick, set 2, dose response (AID 743343); format: functional;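 also: transfected cells were stimulated with diluted bursicon conditioned medium after compound addition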
# [12] = test system: HEK293; experiment: cells; conditions: Homo sapiens
# [13] = test system: HEK293; experiment: cells; conditions: Homo sapiens; remark: listed apart in the source
# [14] = reduced cellular PGC1a acetyl-lysine signal – cell-based, cherry-picked samples, dose response (AID 720514); format: functional;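 also: potency may reflect raised or lowered acetylation signal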
# [15] = viability loss in HepG2 hepatoma cells – cell-based, ATP luminescence, cherry-pick, activator set 2, cytotoxicity control, dose response (AID 1053143); format: functional
# [16] = molecular target: Fructose-bisphosphate aldolase (Mycobacterium tuberculosis, UniProt P9WQA3); experiment: Fluorescence-based biochemical high throughput dose response assay for inhibitors of the fructose-bisphosphate aldolase (FBA) of M. tuberculosis.; format: functional
# [17] = cells; format: functional, cell-based
# [18] = cells; format: functional, cell-based; remark: listed apart in the source
# [19] = molecular target: T1, Estrogen receptor beta (Homo sapiens, UniProt Q92731);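 also: recombinant ER-beta bound to coactivator SRC1 peptide in presence of estradiol agonist; inhibitors block coactivator peptide binding and lower the FRET signal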
# [20] = molecular target: T1, Estrogen receptor beta; experiment: blockers of SRC-3 recruitment to ERβ – biochemical, ELISA, streptavidin-HRP readout, orthogonal assay, confirmation (AID 1060)
# [21] = molecular target: T2, Estrogen receptor (Homo sapiens, UniProt P03372);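 also: potency for inhibiting coactivator peptide recruitment to the receptor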
# T2 sequence (P03372 whole entry): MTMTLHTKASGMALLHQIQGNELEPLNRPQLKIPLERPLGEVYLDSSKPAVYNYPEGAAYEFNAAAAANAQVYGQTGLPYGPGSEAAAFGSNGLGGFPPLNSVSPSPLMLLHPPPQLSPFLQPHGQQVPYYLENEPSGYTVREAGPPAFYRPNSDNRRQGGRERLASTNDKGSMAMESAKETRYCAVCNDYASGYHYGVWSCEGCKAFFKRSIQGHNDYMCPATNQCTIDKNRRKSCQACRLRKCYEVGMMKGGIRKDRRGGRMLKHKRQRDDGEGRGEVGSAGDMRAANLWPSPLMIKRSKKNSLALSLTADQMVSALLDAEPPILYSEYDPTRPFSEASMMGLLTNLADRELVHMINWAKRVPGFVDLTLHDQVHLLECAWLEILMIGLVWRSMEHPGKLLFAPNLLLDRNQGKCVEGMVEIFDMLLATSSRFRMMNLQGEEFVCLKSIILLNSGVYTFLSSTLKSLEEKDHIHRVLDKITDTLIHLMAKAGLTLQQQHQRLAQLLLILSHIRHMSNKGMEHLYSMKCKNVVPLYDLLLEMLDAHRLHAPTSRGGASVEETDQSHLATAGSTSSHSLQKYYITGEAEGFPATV
# [22] = test system: HEK293; experiment: viability loss in HEK293T cells – cell-based, ATP luminescence, cherry-pick samples, cytotoxicity control, dose response (AID 687005); format: functional; conditions: Homo sapiens;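 also: cells exposed to compound for 48 hours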
# [23] = HEK293 Cytotoxicity Assay Measured in Cell-Based System Using Plate Reader - 7071-01_Inhibitor_Dose_CherryPick_Activity_Set2.; format: functional
# [24] = molecular target: Nuclear receptor subfamily 0 group B member 1 (Homo sapiens, UniProt P51843); format: functional, cell-based;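 also: HEK293T cells transfected with SF-1 and DAX-1 plus StAR promoter luciferase reporter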
# [25] = cells; format: functional, cell-based; remark: listed apart in the source
# [26] = molecular target: T3, Endoribonuclease toxin MazF (Escherichia coli K-12, UniProt P0AE70); experiment: activation of MazEF endoribonuclease cleavage – biochemical, fluorescence, single-stranded RNA substrate, uHTS hits, dose response (AID 588481); format: functional
# T3 sequence (P0AE70 whole entry): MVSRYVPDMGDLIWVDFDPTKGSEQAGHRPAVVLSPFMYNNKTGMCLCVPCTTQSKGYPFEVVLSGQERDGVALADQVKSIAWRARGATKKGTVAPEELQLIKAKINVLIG
# [27] = test system: Streptococcus; experiment: GAS UMAA2166 growth inhibition – luminescence, BacTiterGlo, counter-screen for streptokinase expression inhibitor project, dose response (AID 1915); format: functional, organism-based;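 also: potency for reduction of bacterial viability or growth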
# [28] = molecular target: T3, Endoribonuclease toxin MazF; experiment: substrate-only fluorescence increase artefacts – biochemical, single-stranded RNase substrate, counter-screen for MazEF activator project, dose response (AID 588502); format: functional
# [29] = molecular target: T4, Zinc finger protein mex-5 (Caenorhabditis elegans, UniProt Q9XUB2); experiment: potency of MEX-5 RNA-binding blockers – biochemical, C. elegans, fluorescence polarization, dose response (AID 1960)
# T4 sequence (Q9XUB2 whole entry): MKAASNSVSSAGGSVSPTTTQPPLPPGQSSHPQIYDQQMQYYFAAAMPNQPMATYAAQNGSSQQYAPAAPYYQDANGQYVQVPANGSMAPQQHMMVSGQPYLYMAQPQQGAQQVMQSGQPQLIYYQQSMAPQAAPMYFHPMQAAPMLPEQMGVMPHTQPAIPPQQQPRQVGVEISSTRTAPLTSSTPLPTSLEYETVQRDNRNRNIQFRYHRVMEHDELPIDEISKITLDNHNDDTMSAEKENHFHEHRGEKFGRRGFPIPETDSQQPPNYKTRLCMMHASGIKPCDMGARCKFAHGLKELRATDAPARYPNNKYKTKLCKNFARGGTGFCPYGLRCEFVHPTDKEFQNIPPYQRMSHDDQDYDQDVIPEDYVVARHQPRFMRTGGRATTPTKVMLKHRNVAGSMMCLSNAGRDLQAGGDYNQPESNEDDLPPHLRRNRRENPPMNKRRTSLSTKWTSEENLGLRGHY
# [30] = molecular target: T5, RNA-binding protein pos-1 (Caenorhabditis elegans, UniProt G5EF15); experiment: disruptors of C. elegans POS-1 RNA interaction – biochemical, fluorescence polarization, dose response (AID 1964);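 also: purified POS-1 fused to maltose binding protein made in E. coli; potency of compounds blocking POS-1 binding to fluorescent RNA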
# T5 sequence (G5EF15 whole entry): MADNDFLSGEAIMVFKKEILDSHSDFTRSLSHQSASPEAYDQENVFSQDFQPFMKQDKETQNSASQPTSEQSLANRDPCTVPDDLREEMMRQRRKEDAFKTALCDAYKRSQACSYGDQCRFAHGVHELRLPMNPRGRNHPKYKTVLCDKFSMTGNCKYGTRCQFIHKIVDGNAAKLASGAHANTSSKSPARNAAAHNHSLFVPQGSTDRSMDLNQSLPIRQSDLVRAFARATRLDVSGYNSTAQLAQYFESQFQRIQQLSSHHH
# [31] = molecular target: T6, Streptokinase A (Streptococcus pyogenes serotype M1, UniProt P10520); experiment: viability-normalized secreted streptokinase activity reduction – plasminogen activation absorbance, OD405, dose response (AID 1914); format: functional, Streptococcus pyogenes M1 GAS;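 also: secreted streptokinase activity via plasminogen activation per viability signal from cell pellet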
# T6 sequence (P10520 whole entry): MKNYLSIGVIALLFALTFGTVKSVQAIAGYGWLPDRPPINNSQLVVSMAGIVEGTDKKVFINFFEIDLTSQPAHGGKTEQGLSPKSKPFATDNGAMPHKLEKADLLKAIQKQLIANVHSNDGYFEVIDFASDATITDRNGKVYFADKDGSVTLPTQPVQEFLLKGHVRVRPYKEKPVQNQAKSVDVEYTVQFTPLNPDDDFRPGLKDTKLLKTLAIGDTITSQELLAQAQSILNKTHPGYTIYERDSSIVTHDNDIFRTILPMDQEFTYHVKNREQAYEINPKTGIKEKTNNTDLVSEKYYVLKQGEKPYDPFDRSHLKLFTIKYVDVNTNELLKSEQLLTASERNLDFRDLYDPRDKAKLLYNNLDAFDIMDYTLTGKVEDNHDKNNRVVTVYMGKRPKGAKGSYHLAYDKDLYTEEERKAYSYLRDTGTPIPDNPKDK
# [32] = molecular target: Beta-galactosidase (Escherichia coli, UniProt Q8VNN2); experiment: Dose response counterscreen for EBI2 assay utilizing the enzyme, b-galactosidase.; format: functional
# [33] = Luminescence Cell-Based Dose Response HTS to Identify Inhibitors of 5'UTR Stem-Loop Driven Prion Protein mRNA Translation in H4 Neuroglioblastoma Cells. [Related pubchem assays: 1827 (Project Summary), 1813 (Primary HTS)]; format: functional
# [34] = alpha-synuclein stem-loop luciferase translation blockers – H4 neuroglioma cells, luminescence, confirmation (AID 1988); format: functional, cell-based
# [35] = test system: H4; experiment: Luminescence Cell-Based Dose Response HTS to Identify Activators of 5'UTR Stem-Loop Driven Prion Protein mRNA Translation in H4 Neuroglioblastoma Cells. [Related pubchem assays: 1829 (Project Summary), 1814 (Primary HTS)]; format: functional; conditions: Homo sapiens
# [36] = Luminescence Cell-Based Dose Response HTS to Identify Activators of Luciferase Translation or Activity in H4 […] Cells. [Related pubchem assays: 1829 (Project Summary), 1814 (Primary HTS)]; format: functional
# [37] = inhibitors of non-replicating M. tuberculosis, dose response, luciferase, dry powder (AID 651619); format: functional; conditions: Mycobacterium tuberculosis
# [38] = inhibitors of non-replicating M. tuberculosis, dose response, luciferase, dry powder (AID 651620); format: functional; conditions: Mycobacterium tuberculosis
# T1 sequence (Q92731 whole entry): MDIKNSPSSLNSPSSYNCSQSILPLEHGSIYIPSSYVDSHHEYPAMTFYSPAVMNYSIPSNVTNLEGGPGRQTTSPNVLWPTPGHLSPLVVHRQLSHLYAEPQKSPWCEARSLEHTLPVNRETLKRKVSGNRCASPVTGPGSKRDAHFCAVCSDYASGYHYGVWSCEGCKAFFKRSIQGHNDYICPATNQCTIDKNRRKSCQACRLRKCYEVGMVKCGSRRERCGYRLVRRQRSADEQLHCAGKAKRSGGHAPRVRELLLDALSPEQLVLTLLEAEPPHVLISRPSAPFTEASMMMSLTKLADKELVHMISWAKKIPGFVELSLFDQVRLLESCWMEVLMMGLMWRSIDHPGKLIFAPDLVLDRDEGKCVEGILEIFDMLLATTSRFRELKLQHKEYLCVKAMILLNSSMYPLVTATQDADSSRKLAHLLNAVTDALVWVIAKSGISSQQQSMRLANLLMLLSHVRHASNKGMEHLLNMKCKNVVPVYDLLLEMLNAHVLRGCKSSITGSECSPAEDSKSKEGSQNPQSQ
# Nuclear receptor subfamily 0 group B member 1, sequence (P51843 whole entry): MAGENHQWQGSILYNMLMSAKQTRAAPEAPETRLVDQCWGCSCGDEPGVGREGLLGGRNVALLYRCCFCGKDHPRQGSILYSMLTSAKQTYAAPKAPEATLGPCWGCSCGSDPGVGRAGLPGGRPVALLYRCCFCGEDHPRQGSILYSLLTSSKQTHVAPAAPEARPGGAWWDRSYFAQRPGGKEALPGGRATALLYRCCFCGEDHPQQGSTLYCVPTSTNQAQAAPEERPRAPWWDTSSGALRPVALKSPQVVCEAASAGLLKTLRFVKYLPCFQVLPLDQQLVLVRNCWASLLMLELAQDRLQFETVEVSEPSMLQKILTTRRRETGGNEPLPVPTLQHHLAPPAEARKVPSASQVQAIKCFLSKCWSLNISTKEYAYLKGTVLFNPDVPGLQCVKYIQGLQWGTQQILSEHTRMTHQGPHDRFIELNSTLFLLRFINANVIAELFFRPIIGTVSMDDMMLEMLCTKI
# Fructose-bisphosphate aldolase, sequence (P9WQA3 whole entry): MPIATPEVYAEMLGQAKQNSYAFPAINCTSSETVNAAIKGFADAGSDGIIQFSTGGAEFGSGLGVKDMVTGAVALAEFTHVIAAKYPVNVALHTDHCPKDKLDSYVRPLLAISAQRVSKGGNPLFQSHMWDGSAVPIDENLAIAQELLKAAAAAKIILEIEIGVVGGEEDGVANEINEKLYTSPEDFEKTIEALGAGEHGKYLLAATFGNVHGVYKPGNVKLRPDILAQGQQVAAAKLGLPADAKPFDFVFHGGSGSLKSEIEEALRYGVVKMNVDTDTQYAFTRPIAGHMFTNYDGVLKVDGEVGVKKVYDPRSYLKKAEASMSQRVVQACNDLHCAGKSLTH
# Beta-galactosidase, sequence (Q8VNN2 whole entry): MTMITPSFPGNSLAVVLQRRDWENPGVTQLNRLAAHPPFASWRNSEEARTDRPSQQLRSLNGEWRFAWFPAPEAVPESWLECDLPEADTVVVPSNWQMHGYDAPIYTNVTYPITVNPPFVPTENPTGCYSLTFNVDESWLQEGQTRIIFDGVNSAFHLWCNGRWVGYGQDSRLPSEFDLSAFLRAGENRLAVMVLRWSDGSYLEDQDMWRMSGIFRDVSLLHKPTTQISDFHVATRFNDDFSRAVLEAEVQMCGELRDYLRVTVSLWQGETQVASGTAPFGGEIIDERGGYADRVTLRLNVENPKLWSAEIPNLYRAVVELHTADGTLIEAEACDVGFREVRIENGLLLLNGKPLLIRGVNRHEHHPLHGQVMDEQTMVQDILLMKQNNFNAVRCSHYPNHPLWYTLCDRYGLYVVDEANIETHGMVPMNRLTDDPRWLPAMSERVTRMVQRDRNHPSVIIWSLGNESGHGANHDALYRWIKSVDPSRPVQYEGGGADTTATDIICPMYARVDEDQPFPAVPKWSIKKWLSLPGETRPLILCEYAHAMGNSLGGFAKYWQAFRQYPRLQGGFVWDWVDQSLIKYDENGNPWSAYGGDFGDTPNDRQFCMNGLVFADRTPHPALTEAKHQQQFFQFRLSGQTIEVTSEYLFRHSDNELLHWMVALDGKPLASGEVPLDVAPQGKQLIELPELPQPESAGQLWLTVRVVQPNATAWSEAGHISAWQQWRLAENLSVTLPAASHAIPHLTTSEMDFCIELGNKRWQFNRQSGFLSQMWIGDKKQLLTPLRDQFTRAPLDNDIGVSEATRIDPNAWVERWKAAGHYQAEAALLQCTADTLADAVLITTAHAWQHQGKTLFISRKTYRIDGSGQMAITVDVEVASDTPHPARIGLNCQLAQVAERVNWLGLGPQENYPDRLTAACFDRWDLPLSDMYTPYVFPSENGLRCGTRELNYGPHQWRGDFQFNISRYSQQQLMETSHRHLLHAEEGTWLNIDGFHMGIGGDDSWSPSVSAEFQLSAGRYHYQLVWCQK
compound,measurement,setting,value
Cc1cc(C)c2nc(N3CCC(C(=O)NCCCN4CC(C)CC(C)C4)CC3)sc2c1 (stereo unspecified),EC50,[1],1.22 µM (active)
same,IC50,[2],8.62 µM (active)
same,AC50,[3],21.5 µM (active)
same,EC50,[4],> 60 µM (not active)
O=C(Cn1ncc(Cl)c(Cl)c1=O)c1ccc2c(c1)OCCO2,AC50,[5],36.5 µM (active)
same,AC50,[6],17 µM (active)
same,CC50,[7],9.67 µM (active)
same,AC50,[8],21.3 µM (active)
same,AC50,[9],> 120 µM (inactive)
same,CC50,[10],13.8 µM (active)
same,AC50,[11],28.4 µM (active)
same,EC50,[12],> 59.5 µM (inactive)
same,EC50,[13],> 59.5 µM (inactive)
same,AC50,[14],15.4 µM (active)
Cc1ncsc1C(=O)Nc1nc2c(s1)CC(C)CC2 (stereo unspecified),AC50,[15],> 52 µM (inactive)
Cc1nc2c(cc1N)nc(C)n2Cc1ccccc1,IC50,[16],0.653 µM (active)
Cc1ccc2c(c1)CCCN2C(=O)c1cc(C)c(C)s1,CC50,[7],> 40 µM (active)
Oc1ccnc(NCCc2ccccc2)n1,IC50,[17],> 29.9 µM (inactive)
same,EC50,[18],> 29.9 µM (inactive)
Nc1c(-c2ccccc2)cnn1-c1ccc(C(=O)O)cc1,IC50,[2],5.93 µM (active)
CC12CCCCC1(O)[N+](=O)C1=C(CCCC1)N2[O-] (stereo unspecified),IC50,[19],10.9 µM (active)
same,IC50,[20],2.85 µM (not active)
CCOc1ccc(NC2=NC(=O)S/C2=C\c2ccc(OC)cc2)cc1,IC50,[21],18.8 µM (active)
same,IC50,[19],> 50 µM (not active)
same,IC50,[20],99.9 µM (not active)
COc1ccccc1CNC(=O)C[C@@H]1CC[C@@H]2[C@H](COc3ccc(NC(C)=O)cc3C(=O)N2C)O1,AC50,[22],37.8 µM (active)
same,AC50,[23],37.8 µM (active)
CCC(=O)Nc1ccc2c(c1)C(=O)N(C)C2=O,IC50,[16],4.38 µM (active)
CCOC(=O)c1c(S(=O)(=O)Nc2ccc(CN3CCC(C)CC3)cc2)c(C)n(C)c1C,IC50,[24],> 67.5 µM (inactive)
same,IC50,[25],> 67.5 µM (inactive)
COC(=O)/C=C1\C(=O)N(c2nc3ccccc3s2)C(=S)N1c1ccc(F)cc1,EC50,[26],> 99 µM (inactive)
same,EC50,[27],> 150 µM (not active)
same,EC50,[28],> 99 µM (inactive)
same,EC50,[29],> 300 µM (not active)
same,EC50,[30],> 300 µM (not active)
same,EC50,[31],> 150 µM (not active)
same,IC50,[32],> 80 µM (inactive)
Cc1ccc(-c2cc(C(=O)N3CCCC3)no2)cc1,IC50,[24],> 67.5 µM (inactive)
same,EC50,[33],2.79 µM (active)
same,IC50,[25],> 67.5 µM (inactive)
same,EC50,[34],9.94 µM (inconclusive)
CCOC(=O)C1CCN(c2ccc(-c3cccs3)nn2)CC1,AC50,[15],26 µM (active)
same,EC50,[35],96.1 µM (active)
same,EC50,[36],0.391 µM (active)
Fc1ccc(CSc2nnc(-c3cccnc3)o2)cc1,IC90,[37],1 µM (active)
same,IC90,[38],1 µM (active)
